Experimental data taken from ChEMBL document CHEMBL1153018, “Synthesis of pochoxime prodrugs as potent HSP90 inhibitors” (Bioorg Med Chem Lett, 2009).
The source made the active and inactive calls. The calls are words filed in the database; no cut-off is given here.

Experiments:
[1] = Oral bioavailability in mouse; type: ADME, organism-based; details: in vivo
[2] = system: NCI-H1975; experiment: Induction of mutant c-Raf degradation in human tarceva and iressa-resistant NCI-H1975 cells at 20 to 500 nM by Western blotting; type: functional, cell-based
[3] = Drug level in tumor of human BT474 cells xenografted in ICR-SCID mouse at 100 mg/kg, ip administered after 3 weeks tumor implantation measured after 24 hrs; type: ADME, organism-based, Neoplasm, BT-474; parameters: dose 100 mg/kg, route intraperitoneal; details: tumor (human BT474 xenograft), read-out: Drug uptake
[4] = system: Mus musculus; experiment: Hepatotoxicity in ICR-SCID mouse liver assessed as alkaline phosphatase level at 100 mg/kg administered 3 times per week for 4 weeks measured after 24 hrs of last dose relative to untreated control; type: toxicity, organism-based; parameters: dose 100 mg/kg; details: in vivo
[5] = system: BT-474; experiment: Induction of p-HER2 degradation in human BT474 cells xenografted in ICR-SCID mouse at 100 mg/kg, ip administered after 3 weeks tumor implantation after 6 to 48 hrs by Western blotting; type: functional, organism-based; parameters: dose 100 mg/kg
[6] = system: PC-3; experiment: Growth inhibition of human PC3 cells assessed as ATP level after 4 days; type: functional, cell-based
[7] = system: BT-474; experiment: Induction of Cyclin D degradation in human BT474 cells xenografted in ICR-SCID mouse at 100 mg/kg, ip administered after 3 weeks tumor implantation after 6 to 48 hrs by Western blotting; type: functional, organism-based; parameters: dose 100 mg/kg
[8] = system: NCI-H1975; experiment: Induction of mutant p-Akt degradation in human tarceva and iressa-resistant NCI-H1975 cells at 20 to 500 nM by Western blotting; type: functional, cell-based
[9] = system: Mus musculus; experiment: Toxicity in ICR-SCID mouse kidney assessed as creatinine level at 100 mg/kg administered 3 times per week for 4 weeks measured after 24 hrs of last dose relative to untreated control; type: organism-based; parameters: dose 100 mg/kg; details: in vivo
[10] = system: NCI-N87; experiment: Growth inhibition of human NCI-N87 cells assessed as ATP level after 4 days; type: functional; details: NCI-N87, 96 h
[11] = system: Mus musculus; experiment: Toxicity in ICR-SCID mouse heart assessed as cholesterol level at 150 mg/kg administered 3 times per week for 4 weeks measured after 24 hrs of last dose relative to untreated control; type: organism-based; parameters: dose 150 mg/kg; details: in vivo
[12] = Growth inhibition of human MDA231 cells assessed as ATP level after 4 days; type: functional; details: MDA-MB-231, 96 h
[13] = system: BT-474; experiment: Induction of c-Raf degradation in human BT474 cells xenografted in ICR-SCID mouse at 100 mg/kg, ip administered after 3 weeks tumor implantation after 6 to 48 hrs by Western blotting; type: functional, organism-based; parameters: dose 100 mg/kg
[14] = Solubility in water; type: physicochemical; details: buffer
[15] = system: Mus musculus; experiment: Hepatotoxicity in ICR-SCID mouse liver assessed as alanine aminotransferase level at 150 mg/kg administered 3 times per week for 4 weeks measured after 24 hrs of last dose relative to untreated control; type: toxicity, organism-based; parameters: dose 150 mg/kg; details: in vivo
[16] = system: NCI-H1975; experiment: Induction of mutant Met degradation in human tarceva and iressa-resistant NCI-H1975 cells at 20 to 500 nM by Western blotting; type: functional, cell-based
[17] = system: Mus musculus; experiment: Hepatotoxicity in ICR-SCID mouse liver assessed as alanine aminotransferase level at 100 mg/kg administered 3 times per week for 4 weeks measured after 24 hrs of last dose relative to untreated control; type: toxicity, organism-based; parameters: dose 100 mg/kg; details: in vivo
[18] = target: Heat shock protein HSP 90-alpha (Homo sapiens) (UniProt P07900)
Description: Binding affinity to human HSP90alpha

[19] = system: NSCLC; experiment: Growth inhibition of human NSCLC cells assessed as ATP level after 4 days; type: functional, cell-based
[20] = system: HCC827; experiment: Induction of mutant EGFR degradation in human tarceva and iressa-resistant HCC827 cells at 20 to 500 nM by Western blotting; type: functional, cell-based
[21] = system: NCI-H1975; experiment: Induction of mutant EGFR degradation in human tarceva and iressa-resistant NCI-H1975 cells at 20 to 500 nM by Western blotting; type: functional, cell-based
[22] = system: NCI-H1975; experiment: Induction of mutant Cyclin D degradation in human tarceva and iressa-resistant NCI-H1975 cells at 20 to 500 nM by Western blotting; type: functional, cell-based
[23] = system: MDA-MB-468; experiment: Growth inhibition of human MDA-MB-468 cells assessed as ATP level after 4 days; type: functional; details: MDA-MB-468, 96 h
[24] = Drug level in tumor of human BT474 cells xenografted in ICR-SCID mouse at 200 mg/kg, ip administered after 3 weeks tumor implantation measured after 12 hrs; type: ADME, organism-based, Neoplasm, BT-474; parameters: dose 200 mg/kg, route intraperitoneal; details: tumor (human BT474 xenograft), read-out: Drug uptake
[25] = system: Mus musculus; experiment: Hepatotoxicity in ICR-SCID mouse liver assessed as alkaline phosphatase level at 150 mg/kg administered 3 times per week for 4 weeks measured after 24 hrs of last dose relative to untreated control; type: toxicity, organism-based; parameters: dose 150 mg/kg; details: in vivo
[26] = system: Mus musculus; experiment: Toxicity in ICR-SCID mouse heart assessed as […] level at 100 mg/kg administered 3 times per week for 4 weeks measured after 24 hrs of last dose relative to untreated control; type: organism-based; parameters: dose 100 mg/kg; details: in vivo
[27] = system: HCC827; experiment: Induction of mutant Cdk4 degradation in human tarceva and iressa-resistant HCC827 cells at 20 to 500 nM by Western blotting; type: functional, cell-based
[28] = system: HCC827; experiment: Induction of mutant p-Akt degradation in human tarceva and iressa-resistant HCC827 cells at 20 to 500 nM by Western blotting; type: functional, cell-based
[29] = Drug level in tumor of human BT474 cells xenografted in ICR-SCID mouse at 150 mg/kg, ip administered after 3 weeks tumor implantation measured after 24 hrs; type: ADME, organism-based, Neoplasm, BT-474; parameters: dose 150 mg/kg, route intraperitoneal; details: tumor (human BT474 xenograft), read-out: Drug uptake
[30] = system: MV4-11; experiment: Growth inhibition of human MV4-11 cells assessed as ATP level after 4 days; type: functional; details: MV4-11, 96 h
[31] = system: HCT-116; experiment: Growth inhibition of human HCT116 cells assessed as ATP level after 4 days; type: functional; details: HCT-116, 96 h
[32] = system: Mus musculus; experiment: Hepatotoxicity in ICR-SCID mouse liver assessed as hematopoietic cell differentiation administered 3 times per week for 4 weeks measured after 24 hrs of last dose; type: toxicity, organism-based; details: in vivo
[33] = Drug level in tumor of human BT474 cells xenografted in ICR-SCID mouse at 100 mg/kg, ip administered after 3 weeks tumor implantation measured after 12 hrs; type: ADME, organism-based, Neoplasm, BT-474; parameters: dose 100 mg/kg, route intraperitoneal; details: tumor (human BT474 xenograft), read-out: Drug uptake
[34] = system: HCC827; experiment: Induction of mutant Met degradation in human tarceva and iressa-resistant HCC827 cells at 20 to 500 nM by Western blotting; type: functional, cell-based
[35] = Drug level in tumor of human BT474 cells xenografted in ICR-SCID mouse at 200 mg/kg, ip administered after 3 weeks tumor implantation measured after 48 hrs; type: ADME, organism-based, Neoplasm, BT-474; parameters: dose 200 mg/kg, route intraperitoneal; details: tumor (human BT474 xenograft), read-out: Drug uptake
[36] = system: Mus musculus; experiment: Toxicity in ICR-SCID mouse kidney assessed as BUN level at 100 mg/kg administered 3 times per week for 4 weeks measured after 24 hrs of last dose relative to untreated control; type: organism-based; parameters: dose 100 mg/kg; details: in vivo
[37] = Drug level in tumor of human BT474 cells xenografted in ICR-SCID mouse at 200 mg/kg, ip administered after 3 weeks tumor implantation measured after 24 hrs; type: ADME, organism-based, Neoplasm, BT-474; parameters: dose 200 mg/kg, route intraperitoneal; details: tumor (human BT474 xenograft), read-out: Drug uptake
[38] = system: BT-474; experiment: Induction of HER2 degradation in human BT474 cells xenografted in ICR-SCID mouse at 100 mg/kg, ip administered after 3 weeks tumor implantation after 6 to 48 hrs by Western blotting; type: functional, organism-based; parameters: dose 100 mg/kg
[39] = system: Mus musculus; experiment: Toxicity in ICR-SCID mouse heart assessed as cholesterol level at 100 mg/kg administered 3 times per week for 4 weeks measured after 24 hrs of last dose relative to untreated control; type: organism-based; parameters: dose 100 mg/kg; details: in vivo
[40] = system: Mus musculus; experiment: Hepatotoxicity in ICR-SCID mouse liver assessed as aspartate aminotransferase level at 150 mg/kg administered 3 times per week for 4 weeks measured after 24 hrs of last dose relative to untreated control; type: toxicity, organism-based; parameters: dose 150 mg/kg; details: in vivo

O=C1OCC/C=C/CC/C=C/C(=N/OCC(=O)N2CCCCC2)Cc2c(Cl)c(O)cc(O)c21 [POCHOXIME A]
bioavailability [1]: 3.4%
Activity [2]: Active
concentration at 24 h [3]: 4020 ng/g
Activity [4]: 51.3 U/L
Activity [5]: Active
Activity [6]: Active
Activity [7]: Active
Activity [8]: Active
Activity [9]: 0.2 mg/dL
GI50 [10]: 4 nM
Activity [11]: 119 mg/dL
GI50 [12]: 7 nM
Activity [13]: Active
solubility [14]: Insoluble
Activity [15]: 12 U/L
Activity [16]: Active
Activity [17]: 19.3 U/L
GI50 [18]: 21 nM
Activity [19]: Active
Activity [20]: Active
Activity [21]: Active
Activity [22]: Active
GI50 [23]: 9 nM
concentration at 12 h [24]: 8920 ng/g
Activity [25]: 67.5 U/L
Activity [26]: 15.2 U/L
Activity [27]: Active
Activity [28]: Active
concentration at 24 h [29]: 7930 ng/g
GI50 [30]: 3 nM
GI50 [31]: 9 nM
Activity [32]: Not Active
concentration at 12 h [33]: 5250 ng/g
Activity [34]: Active
concentration at 48 h [35]: 4020 ng/g
Activity [36]: 20 mg/dL
concentration at 24 h [37]: 10200 ng/g
Activity [38]: Active
Activity [39]: 168 mg/dL
Activity [40]: 191 U/L
